Assay results from patent US20240044922A1, “DEVICE AND METHODS FOR MEASURING PLATELET-FIBRIN CLOT CONTRACTION KINETICS” (University of Kentucky Research Foundation, priority 2022, published 2024).

Tested on: washed mouse platelets
Assay: Clot contraction assay, time-lapse imaging of washed mouse platelets with thrombin, fibrinogen and CaCl2
Assay type: cell-based
Settings: for AUC / Average Velocity / Clot Contraction Extent / Lag time / PHASE 1 % Contraction / PHASE 1 Rate 1 / PHASE 1 t1 / PHASE 2 % Contraction / PHASE 2 Rate 2 / PHASE 2 t2 / PHASE 3 % Contraction / PHASE 3 Rate 3: CaCl2 0.5 mM
[1] = fibrinogen 62 μg/mL, thrombin 20 mU/mL
[2] = fibrinogen 125 μg/mL, thrombin 20 mU/mL
[3] = fibrinogen 250 μg/mL, thrombin 20 mU/mL
[4] = fibrinogen 500 μg/mL, thrombin 20 mU/mL
[5] = fibrinogen 1000 μg/mL, thrombin 20 mU/mL
[6] = increased thrombin concentration, 10-200 mU/mL
[7] = thrombin 10 mU/mL, fibrinogen 250 μg/mL
[8] = thrombin 20 mU/mL, fibrinogen 250 μg/mL
[9] = thrombin 30 mU/mL, fibrinogen 250 μg/mL
[10] = thrombin 50 mU/mL, fibrinogen 250 μg/mL
[11] = thrombin 100 mU/mL, fibrinogen 250 μg/mL

In the case of Fibrinogen, the AUC [1] is reported as 6.66 AU, the “Average Velocity” value [1] is reported as 0.53 %/min and the “Clot Contraction Extent” value [1] is reported as 53.50%. For the same substance, the Lag time [1] was 46.67 min, the “PHASE 1 % Contraction” value [1] was 2.11% and the “PHASE 1 Rate 1” value [1] was 1.50 ×10^−3 %/min. For the same substance, the “PHASE 1 t1” value [1] was 13.00 min, the “PHASE 2 % Contraction” value [1] was 24.32% and the “PHASE 2 Rate 2” value [1] was 1.19 %/min. For the same substance, the “PHASE 2 t2” value [1] was 28.00 min, the “PHASE 3 % Contraction” value [1] was 43.44% and the “PHASE 3 Rate 3” value [1] was 2.90 ×10^−2 %/min. The AUC [2] was 4.13 AU, the “Average Velocity” value [2] was 1.00 %/min and the “Clot Contraction Extent” value [2] was 98.07%. For the same substance, the Lag time [2] was 26.40 min, the “PHASE 1 % Contraction” value [2] was 2.72% and the “PHASE 1 Rate 1” value [2] was 2.25 ×10^−3 %/min. The “PHASE 1 t1” value [2] was 10.75 min, the “PHASE 2 % Contraction” value [2] was 37.99% and the “PHASE 2 Rate 2” value [2] was 1.66 %/min. The “PHASE 2 t2” value [2] was 30.75 min, the “PHASE 3 % Contraction” value [2] was 57.36% and the “PHASE 3 Rate 3” value [2] was 5.90 ×10^−2 %/min. The AUC [3] was 4.23 AU, the “Average Velocity” value [3] was 0.98 %/min and the “Clot Contraction Extent” value [3] was 96.87%. The Lag time [3] was 21.67 min, the “PHASE 1 % Contraction” value [3] was 3.26% and the “PHASE 1 Rate 1” value [3] was 2.18 ×10^−3 %/min. For the same substance, the “PHASE 1 t1” value [3] was 10.40 min, the “PHASE 2 % Contraction” value [3] was 26.29% and the “PHASE 2 Rate 2” value [3] was 1.50 %/min. For the same substance, the “PHASE 2 t2” value [3] was 29.40 min, the “PHASE 3 % Contraction” value [3] was 67.28% and the “PHASE 3 Rate 3” value [3] was 4.96 ×10^−2 %/min. For the same substance, the AUC [4] was 4.89 AU, the “Average Velocity” value [4] was 0.89 %/min and the “Clot Contraction Extent” value [4] was 88.42%. For the same substance, the Lag time [4] was 17.80 min, the “PHASE 1 % Contraction” value [4] was 3.48% and the “PHASE 1 Rate 1” value [4] was 2.78 ×10^−3 %/min. The “PHASE 1 t1” value [4] was 9.40 min, the “PHASE 2 % Contraction” value [4] was 19.02% and the “PHASE 2 Rate 2” value [4] was 1.10 %/min. For the same substance, the “PHASE 2 t2” value [4] was 26.00 min, the “PHASE 3 % Contraction” value [4] was 65.92% and the “PHASE 3 Rate 3” value [4] was 3.32 ×10^−2 %/min. For the same substance, the Efficiency of contraction (fibrinogen 1,000 μg/mL) was “too high for efficient contraction”, the AUC [5] was 6.18 AU and the “Average Velocity” value [5] was 0.69 %/min. For the same substance, the “Clot Contraction Extent” value [5] was 68.91%, the Lag time [5] was 39.80 min and the “PHASE 1 % Contraction” value [5] was 4.20%. The “PHASE 1 Rate 1” value [5] was 3.03 ×10^−3 %/min, the “PHASE 1 t1” value [5] was 11.80 min and the “PHASE 2 % Contraction” value [5] was 10.11%. The “PHASE 2 Rate 2” value [5] was 0.70 %/min, the “PHASE 2 t2” value [5] was 25.40 min and the “PHASE 3 % Contraction” value [5] was 54.53%. The “PHASE 3 Rate 3” value [5] was 1.92 ×10^−2 %/min and the “Fibrinogen concentrations with highest extent and average velocity of contraction” value (fibrinogen 62.5 to 1,000 μg/mL) was “highest at 125 and 250”.

In the case of Thrombin, the “Effect on extent of clot contraction” value [6] is reported as “remained unchanged”, the “Effect on lag time” value [6] is reported as “decreased” and the “Increase of Phase 1 (initiation) rate” value (over the thrombin concentration range tested) is reported as ~5 fold. The AUC [7] was 5.62 AU, the “Average Velocity” value [7] was 0.82 %/min and the “Clot Contraction Extent” value [7] was 80.19%. For the same substance, the Lag time [7] was 28.33 min, the “PHASE 1 % Contraction” value [7] was 4.93% and the “PHASE 1 Rate 1” value [7] was 4.27 ×10^−3 %/min. For the same substance, the “PHASE 1 t1” value [7] was 13.33 min, the “PHASE 2 % Contraction” value [7] was 23.95% and the “PHASE 2 Rate 2” value [7] was 1.02 %/min. For the same substance, the “PHASE 2 t2” value [7] was 36.00 min, the “PHASE 3 % Contraction” value [7] was 51.32% and the “PHASE 3 Rate 3” value [7] was 3.93 ×10^−2 %/min. For the same substance, the AUC [8] was 4.90 AU, the “Average Velocity” value [8] was 0.90 %/min and the “Clot Contraction Extent” value [8] was 88.45%. The Lag time [8] was 19.33 min, the “PHASE 1 % Contraction” value [8] was 4.66% and the “PHASE 1 Rate 1” value [8] was 4.67 ×10^−3 %/min. The “PHASE 1 t1” value [8] was 11.33 min, the “PHASE 2 % Contraction” value [8] was 31.74% and the “PHASE 2 Rate 2” value [8] was 1.33 %/min. The “PHASE 2 t2” value [8] was 36.33 min, the “PHASE 3 % Contraction” value [8] was 52.05% and the “PHASE 3 Rate 3” value [8] was 3.63 ×10^−2 %/min. For the same substance, the AUC [9] was 4.10 AU, the “Average Velocity” value [9] was 0.94 %/min and the “Clot Contraction Extent” value [9] was 92.41%. The Lag time [9] was 15.33 min, the “PHASE 1 % Contraction” value [9] was 6.03% and the “PHASE 1 Rate 1” value [9] was 6.67 ×10^−3 %/min. The “PHASE 1 t1” value [9] was 8.67 min, the “PHASE 2 % Contraction” value [9] was 20.91% and the “PHASE 2 Rate 2” value [9] was 1.67 %/min. For the same substance, the “PHASE 2 t2” value [9] was 22.00 min, the “PHASE 3 % Contraction” value [9] was 65.45% and the “PHASE 3 Rate 3” value [9] was 2.70 ×10^−2 %/min. The AUC [10] was 3.69 AU, the “Average Velocity” value [10] was 0.94 %/min and the “Clot Contraction Extent” value [10] was 92.51%. The Lag time [10] was 10.67 min, the “PHASE 1 % Contraction” value [10] was 6.96% and the “PHASE 1 Rate 1” value [10] was 27.33 ×10^−3 %/min. For the same substance, the “PHASE 1 t1” value [10] was 6.67 min, the “PHASE 2 % Contraction” value [10] was 16.04% and the “PHASE 2 Rate 2” value [10] was 1.97 %/min. The “PHASE 2 t2” value [10] was 18.00 min, the “PHASE 3 % Contraction” value [10] was 69.51% and the “PHASE 3 Rate 3” value [10] was 3.10 ×10^−2 %/min. The AUC [11] was 3.32 AU, the “Average Velocity” value [11] was 0.97 %/min and the “Clot Contraction Extent” value [11] was 94.93%. The Lag time [11] was 9.00 min, the “PHASE 1 % Contraction” value [11] was 6.55% and the “PHASE 1 Rate 1” value [11] was 21.33 ×10^−3 %/min. For the same substance, the “PHASE 1 t1” value [11] was 5.00 min, the “PHASE 2 % Contraction” value [11] was 19.72% and the “PHASE 2 Rate 2” value [11] was 2.02 %/min. The “PHASE 2 t2” value [11] was 18.67 min, the “PHASE 3 % Contraction” value [11] was 68.67% and the “PHASE 3 Rate 3” value [11] was 3.43 ×10^−2 %/min.
